Reference: ChEMBL document CHEMBL6121056, “Aculeapyridones A-Q, Pyranopyridone Alkaloids with Protective Effects against Acetaminophen-Induced Acute Liver Injury Discovered from a Coculture of Aspergillus aculeatinus WHUF0198 and a Penicillium sp” (2025)

Key:
Type in all cases: functional, Mus musculus
[1] = tested on: AML12; assay: Protection against acetaminophen-induced acute liver injury in AML12 cells at 10 uM incubated for 12 hrs by MTT assay relative to control
[2] = tested on: AML12; assay: Protection against acetaminophen-induced acute liver injury in AML12 cells at 5 uM incubated for 12 hrs by MTT assay relative to control
[3] = tested on: AML12; assay: Cytoprotective activity against acetaminophen-induced acute liver injury in AML12 cells assessed as reduction in ALT level at 5 uM measured after 12 hrs relative to control; design: scale not given: the % may be the effect or the level left

Row | Compound | Activity [1] | Activity [2] | Activity [3]
1 | CC[C@@H](C)/C=C/C=C/C=C(\C)[C@@H]1Oc2c(-c3ccc(O)cc3)c[nH]c(=O)c2C(=O)[C@H]1C | -50% | -10% | 
2 | COn1ccc2c(c1=O)[C@@H](O)[C@@H](C)[C@H](/C(C)=C/C=C/C=C/[C@H](C)CC(=O)O)O2 | 50% | 132% | 115%
3 | CC[C@@H](C)/C=C/C=C/C=C(\C)[C@@H]1Oc2cc[nH]c(=O)c2[C@@H](O)[C@H]1C | -6.5% | 94% | 29%
4 | CO[C@@H]1c2c(cc[nH]c2=O)O[C@@H](/C(C)=C/C=C/C=C/[C@H](CO)CCO)[C@@H]1C | 59% | 20% | 99%
5 | CC[C@@H](/C=C/C=C/C=C(\C)[C@@H]1Oc2cc[nH]c(=O)c2[C@@H](OC)[C@H]1C)C(=O)O | -43% | 164% | 96%
6 | CC[C@H](/C=C/C=C/C=C(\C)[C@@H]1Oc2cc[nH]c(=O)c2[C@@H](O)[C@H]1C)C(=O)O | 56% | 7% | 118%
7 | C\C(=C/C=C/C=C/C(C)CC(=O)O)[C@@H]1Oc2cc[nH]c(=O)c2[C@@H](O)C1C (stereo partly specified) | 26% | 66% | 74%
8 | CC[C@H](/C=C/C=C/C=C(\C)[C@@H]1Oc2ccn(OC)c(=O)c2[C@@H](O)[C@H]1C)CO | 64% | 61% | 71%
9 | CO[C@@H]1c2c(cc[nH]c2=O)O[C@@H](/C(C)=C/C=C/C=C/[C@H](C)CC(=O)O)[C@@H]1C | 18% | 120% | 86%
10 | CC[C@H](/C=C/C=C/C=C(\C)[C@@H]1Oc2ccn(OC)c(=O)c2[C@@H](O)[C@H]1C)C(=O)O | -14% | 74% | 52%
11 | CC[C@H](/C=C/C=C/C=C(\C)[C@@H]1Oc2ccn(OC)c(=O)c2[C@@H](O)[C@H]1C)COC=O | 21% | 144% | 79%
12 | CC[C@H](/C=C/C=C/C=C(\C)[C@@H]1Oc2cc[nH]c(=O)c2[C@@H](O)[C@H]1C)CO | 100% | 17% | 97%
13 | CC[C@H](/C=C/C=C/C=C(\C)[C@@H]1Oc2cc[nH]c(=O)c2[C@@H](OC)[C@H]1C)COC=O | -32% | 15% | 
14 | CC[C@H](/C=C/C=C/C=C(\C)[C@@H]1Oc2cc[nH]c(=O)c2[C@@H](OC)[C@H]1C)CO | 53% | 125% | 82%
15 | CC[C@@H](C)/C=C/C=C/C=C(\C)[C@@H]1Oc2cc[nH]c(=O)c2[C@@H](OC)[C@H]1C | 192% | 30% | 54%
16 | CC(=O)N[C@@H](CS)C(=O)O [ACETYLCYSTEINE] | 165% | 150% | 45%
